Assay results from the supplement of paper PMC10307832.

Columns and labels:
Experiment in all cases: relative viability (nuclei count vs DMSO), 5 days (fraction); higher = more cells survive
Vandetanib + Pemetrexed = compound: COc1cc2/c(=N/c3ccc(Br)cc3F)nc[nH]c2cc1OCC1CCN(C)CC1 [Vandetanib] + Nc1nc2[nH]cc(CCc3ccc(C(=O)N[C@@H](CCC(=O)O)C(=O)O)cc3)c2c(=O)[nH]1 [Pemetrexed] (partner 0.2 µM)
Procedure, shortened: (§1)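 Relative viability equals treated-well nuclei counts divided by vehicle-well nuclei counts. Counts came from 4× images of lung cancer cell lines grown in 1536-well plates for 5 days after pin-tool dosing on the day after seeding. Dosing used one drug alone or a fixed anchor-drug dose plus five library-drug doses (not always all listed) in √10 steps, and values are medians of duplicate plates.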

Vandetanib + Linsitinib = compound: COc1cc2/c(=N/c3ccc(Br)cc3F)nc[nH]c2cc1OCC1CCN(C)CC1 [Vandetanib] + C[C@]1(O)C[C@@H](c2nc(-c3ccc4ccc(-c5ccccc5)nc4c3)c3c(N)nccn32)C1 [Linsitinib] (partner 1 µM)
Procedure, shortened: as §1

CUDC-101 + Dasatinib = compound: C#Cc1cccc(Nc2ncnc3cc(OC)c(OCCCCCCC(=O)NO)cc23)c1 [CUDC-101] + Cc1nc(Nc2ncc(C(=O)Nc3c(C)cccc3Cl)s2)cc(N2CCN(CCO)CC2)n1 [Dasatinib] (partner 0.075 µM)
Procedure, shortened: as §1

Vandetanib + Dasatinib = compound: COc1cc2/c(=N/c3ccc(Br)cc3F)nc[nH]c2cc1OCC1CCN(C)CC1 [Vandetanib] + Cc1nc(Nc2ncc(C(=O)Nc3c(C)cccc3Cl)s2)cc(N2CCN(CCO)CC2)n1 [Dasatinib] (partner 0.075 µM)
Procedure, shortened: as §1

Cell Line | relative viability (Vandetanib + Pemetrexed; first compound 0.02 µM) | relative viability (Vandetanib + Pemetrexed; first compound 0.06325 µM) | relative viability (Vandetanib + Pemetrexed; first compound 0.2 µM) | relative viability (Vandetanib + Pemetrexed; first compound 0.6325 µM) | relative viability (Vandetanib + Pemetrexed; first compound 2 µM) | relative viability (Vandetanib + Linsitinib; first compound 0.02 µM) | relative viability (Vandetanib + Linsitinib; first compound 0.06325 µM) | relative viability (Vandetanib + Linsitinib; first compound 0.2 µM) | relative viability (Vandetanib + Linsitinib; first compound 0.6325 µM) | relative viability (Vandetanib + Linsitinib; first compound 2 µM) | relative viability (CUDC-101 + Dasatinib; first compound 0.01 µM) | relative viability (CUDC-101 + Dasatinib; first compound 0.03162 µM) | relative viability (CUDC-101 + Dasatinib; first compound 0.1 µM) | relative viability (CUDC-101 + Dasatinib; first compound 0.3162 µM) | relative viability (CUDC-101 + Dasatinib; first compound 1 µM) | relative viability (Vandetanib + Dasatinib; first compound 0.02 µM) | relative viability (Vandetanib + Dasatinib; first compound 0.06325 µM) | relative viability (Vandetanib + Dasatinib; first compound 0.2 µM) | relative viability (Vandetanib + Dasatinib; first compound 0.6325 µM) | relative viability (Vandetanib + Dasatinib; first compound 2 µM)
NCI-H1666 | 0.793 | 0.879 | 0.881 | 0.803 | 0.874 | 0.836 | 0.817 | 0.793 | 0.641 | 0.619 | 0.903 | 0.786 | 0.814 | 0.911 | 0.795 | 0.767 | 0.723 | 0.801 | 0.769 | 0.779
A-427 | 0.907 | 1 | 1.06 | 0.986 | 0.927 | 1.05 | 1.05 | 1.11 | 1.04 | 1.12 | 0.745 | 0.659 | 0.649 | 0.608 | 0.389 | 0.721 | 0.697 | 0.638 | 0.704 | 0.702
NCI-H1395 | 0.917 | 0.902 | 0.746 | 0.842 | 0.612 | 1.1 | 1.09 | 0.934 | 0.968 | 1.18 | 0.418 | 0.385 | 0.438 | 0.434 | 0.363 | 0.349 | 0.373 | 0.417 | 0.405 | 0.444
NCI-H650 | 0.844 | 0.801 | 0.869 | 0.964 | 0.873 | 0.872 | 0.839 | 0.677 | 0.792 | 0.254 | 0.486 | 0.482 | 0.495 | 0.436 | 0.337 | 0.425 | 0.511 | – | 0.433 | 0.365
NCI-H1437 | 0.308 | 0.306 | 0.307 | 0.319 | 0.304 | 0.994 | 0.971 | 1.04 | 1.01 | 0.966 | 0.384 | 0.364 | 0.457 | 0.432 | 0.402 | 0.401 | 0.45 | 0.254 | 0.405 | 0.222
HCC-366 | 0.128 | 0.149 | 0.155 | 0.17 | 0.176 | 0.644 | 0.488 | 0.584 | 0.636 | 0.526 | 0.631 | 0.632 | 0.6 | 0.715 | 0.526 | 0.6 | 0.625 | 0.663 | 0.561 | 0.637
NCI-H661 | 0.882 | 0.938 | 0.98 | 0.907 | 0.907 | 0.585 | 0.506 | 0.59 | 0.672 | 0.418 | 0.926 | 0.926 | 0.862 | 0.815 | 0.386 | 0.988 | 0.856 | 0.837 | 0.803 | 0.874
HCC-78 | 0.88 | 0.889 | 0.893 | 0.873 | 0.901 | 0.414 | 0.438 | 0.567 | 0.579 | 0.337 | 0.401 | 0.293 | 0.373 | 0.28 | 0.213 | 0.428 | 0.286 | 0.362 | 0.451 | 0.336
NCI-H1355 | 1.03 | 0.994 | 1.05 | 0.985 | 1.06 | 0.732 | 0.732 | 0.551 | 0.812 | 0.755 | 0.747 | 0.672 | 0.717 | 0.741 | 0.523 | 0.633 | 0.723 | 0.694 | 0.679 | 0.775
NCI-H1993 | 0.629 | 0.55 | 0.707 | 0.515 | 0.598 | 0.803 | 0.639 | 0.662 | 0.762 | 0.675 | 0.594 | 0.666 | 0.686 | 0.571 | 0.541 | 0.796 | 0.577 | 0.514 | 0.623 | 0.578
NCI-H1734 | 0.4 | 0.388 | 0.41 | 0.404 | 0.467 | 0.849 | 0.891 | 0.849 | 0.89 | 0.848 | 0.502 | 0.43 | 0.461 | 0.536 | 0.376 | 0.471 | 0.497 | 0.44 | 0.469 | 0.468
SK-MES-1 | 1.01 | 0.882 | 0.961 | 0.77 | 0.93 | 1.09 | 0.925 | 1.06 | 0.971 | 0.989 | 0.333 | 0.394 | 0.367 | 0.417 | 0.207 | 0.358 | 0.33 | 0.347 | 0.27 | 0.286
COR-L 105 | 1.17 | 1.13 | 1.09 | 1.07 | 0.843 | 0.891 | 0.877 | 0.976 | 0.54 | 0.444 | 0.337 | 0.382 | 0.277 | 0.418 | 0.122 | 0.337 | 0.322 | 0.271 | 0.281 | 0.184
EMC-BAC-2 | 0.473 | 0.44 | 0.448 | 0.427 | 0.459 | 0.792 | 0.772 | 0.612 | 0.77 | 0.673 | 0.359 | 0.324 | 0.35 | 0.262 | 0.149 | 0.332 | 0.312 | 0.327 | 0.295 | 0.3
NCI-H1915 | 0.496 | 0.509 | 0.523 | 0.505 | 0.477 | 1.06 | 1.09 | 1.08 | 1.1 | 1.13 | 0.301 | 0.292 | 0.293 | 0.292 | 0.24 | 0.278 | 0.279 | 0.304 | 0.313 | 0.312
NCI-H358 | 0.173 | 0.17 | 0.17 | 0.165 | 0.162 | 0.764 | 0.708 | 0.201 | 0.501 | 0.301 | 0.157 | 0.164 | 0.166 | 0.16 | 0.131 | 0.131 | 0.201 | 0.161 | 0.136 | 0.124
